The values below are quoted from earlier work in US8785725B2, “Method for generating resistance against citrus diseases caused by insects, fungi, oomycetes, bacteria or nematodes” (Institute Valenciano de Investigaciones Agrarias, priority 2009, dated 2014).

In the case of `C=C(C)C1CC=C(C)CC1` (stereo not drawn) [d-limonene, 1-methyl-4-(1-methylethenyl)cyclohexene], the miscibility with alcohol entry (alcohol) was “miscible with alcohol”. The solubility in water result (water) is on record as “insoluble in water”.
